According to patent US20030100550A1, “Carboxamide diazepin derivatives, preparation method, use as medicines, pharmaceutical compositions and use thereof” (priority 2002, published 2003):

Experiments:
Cathepsin B = target: T1, Cathepsin B (Homo sapiens, UniProt P07858); test: Study of Cathepsin B inhibition (fluorescence, Z-arg-arg-AMC); format: biochemical; conditions: for IC50: substrate Z-arg-arg-AMC 20 μM, enzyme 16 ng/ml, 1 hour at ambient temperature
T1 construct: purchased Calbiochem
Protocol: (§1) The products to be tested (10 mM) are diluted to […] in DMSO and distributed into Nunc polystyrene 96 well plates at a rate of 2 μl per well. Column 12 of the plate is reserved for the controls and therefore receives […] of DMSO (without products) per well. The plates are stored at −80° C. and thawed on the day of the experiment.
(§2) The products are diluted to 50 μM by adding 38 μl of reaction buffer: sodium acetate 100 mM, EDTA 5 mM, DTT […] pH 5.5. The addition as well as all the operations by pipette are carried out with a CybiWell 96 tip pipette. After mixing the solutions, each product is transferred into 2 wells (duplicates) of a Greiner black 384 well plate at a rate of 10 μl per well. Two 96-well plates can therefore be tested in a 384-well plate.
(§3) A solution of substrate at 50 μM, Z-Val-arg-AMC (Calbiochem), is prepared in the reaction buffer. The substrate, is then distributed into all the wells of the 384-well plate (20 μl per well).
(§4) A solution of Cathepsin K at 12.5 ng/ml is prepared in the reaction buffer and distributed into all the wells of the 384-well plate (20 μl per well) except for the 16 wells serving as 100% inhibition controls (column 23 and 24, lines I to P) which receive 20 μl of enzyme-free buffer.
(§5) The plates are then incubated 2H at ambient temperature, then read on Fluoroskan (Labsystems): excitation 390 nm; emission 460 nm
(§6) The final concentrations of each of the reagents are: products 10 μM, substrate 20 μM, enzyme 5 ng/ml.
(§7) The % inhibition for each of the products is calculated by using points at 0 and 100% inhibition of each plate as references. The products presenting a significant inhibition are then retested on a range of concentrations from 50 to 0.5 μM to determine an IC50.
Study of Cathepsin B Inhibition:
Protocol identical to that of Cathepsin K except for:
Z-arg-arg-AMC substrate (Calbiochem), solution at 50 μM, final concentration 20 μM
Cathepsin B (Calbiochem), solution at 40 ng/ml, final concentration 16 ng/ml
Incubation for 1 hour at ambient temperature

Cathepsin K = target: T2, Cathepsin K (Homo sapiens, UniProt P43235); test: Study of Cathepsin K inhibition (fluorescence, Z-Val-arg-AMC); format: biochemical; conditions: substrate Z-Val-arg-AMC 20 μM, enzyme 5 ng/ml, 2H at ambient temperature; read-out: Cathepsin K IC50
T2 sequence (P43235 115-329): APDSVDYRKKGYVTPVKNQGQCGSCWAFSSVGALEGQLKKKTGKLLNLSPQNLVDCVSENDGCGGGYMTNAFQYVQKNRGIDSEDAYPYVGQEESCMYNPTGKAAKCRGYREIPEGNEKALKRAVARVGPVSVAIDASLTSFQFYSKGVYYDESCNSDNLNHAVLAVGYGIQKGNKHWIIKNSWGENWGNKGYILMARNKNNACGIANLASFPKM
Protocol: Study of Cathepsin K Inhibition:
as §1, §2, §3, §4, §5, §6, §7

IC50 (Cathepsin B) [µM]	IC50 (Cathepsin K) [µM]	Cathepsin B, percentage in parentheses beside IC50 value (% inhibition) (Cathepsin B; printed beside 20 μM, meaning not explained) [%]	SMILES
15	1.5		C=CCOC(=O)CC[C@H](NC(=O)[C@@H]1CCCN2C(=O)CC[C@H](NC(=O)Nc3ccc(Oc4ccccc4)cc3)C(=O)N12)C(=O)C=[N+]=[N-] [Example 43, (2-propenyl)(4S)6-diazo-4-[[[(1S,9S)-9-[[[(4-phenoxyphenyl)amino]carbonyl]amino]-octahydro-6,10-dioxo-6H-pyridazino[1,2-a][1,2]diazepine-1-yl]carbonyl]amino]-5-oxo-hexanoate]
7	3		C=CCOC(=O)CC[C@H](NC(=O)[C@@H]1CCCN2C(=O)CC[C@H](NS(=O)(=O)c3ccc(-c4ccon4)s3)C(=O)N12)C(=O)C=[N+]=[N-] [Example 48, (2-propenyl)(4S)6-diazo-4-[[[(1S,9S)-9-[[[5-(isoxazol-3-yl)-2-thienyl]sulphonyl]amino]-octahydro-6,10-dioxo-6H-pyridazino[1,2-a][1,2]diazepine-1-yl]carbonyl]amino]-5-oxo-hexanoate]
6			C=CCOC(=O)CC[C@H](NC(=O)[C@@H]1CCCN2C(=O)CC[C@H](NS(=O)(=O)c3ccc(C(F)(F)F)cc3)C(=O)N12)C(=O)COC(=O)c1c(Cl)cccc1Cl [Example 101, (2-propenyl)(4S)6-[(2,6-dichlorobenzoyl)oxy]-4-[[[(1S,9S)-9-[[[4-(trifluoromethyl)phenyl]sulphonyl]amino]-octahydro-6,10-dioxo-6H-pyridazino[1,2-a][1,2]diazepine-1-yl]carbonyl]amino]-5-oxo-hexanoate]
7			COc1cccc(C(=O)N[C@H]2CCC(=O)N3CCC[C@@H](C(=O)N[C@@H](Cc4ccccc4)C(=O)COC(=O)c4c(Cl)cccc4Cl)N3C2=O)c1 [Example 185, 9-[(9S)-(3-methoxybenzoyl)amino]-N-((2S)-4-[(2,6-dichlorobenzoyl)oxy]-1-phenyl-3-oxo-2-butyl]-octahydro-6,10-dioxo-6H-(1S)-pyridazino[1,2-a][1,2]diazepine-1-carboxamide]
18	20		O=C(N[C@H]1CCC(=O)N2CCC[C@@H](C(=O)N[C@@H](Cc3ccccc3)C(=O)COC(=O)c3c(Cl)cccc3Cl)N2C1=O)c1ccco1 [Example 192, 9-[(9S)-[(2-furanyl)carbonyl]amino]-N-[(2S)-4-[(2,6-dichlorobenzoyl)oxy]-1-phenyl-3-oxo-2-butyl]-octahydro-6,10-dioxo-6H-(1S)-pyridazino[1,2-a][1,2]diazepine-1-carboxamide]
18	20		O=C(NCCc1cccs1)N[C@H]1CCC(=O)N2CCC[C@@H](C(=O)N[C@@H](Cc3ccccc3)C(=O)CN3CCN(CC(=O)N4CCCC4)CC3)N2C1=O [Example 229]
18	20		CS(=O)(=O)N[C@H]1CCC(=O)N2CCC[C@@H](C(=O)N[C@@H](Cc3ccccc3)C(=O)COC(=O)c3c(Cl)cccc3Cl)N2C1=O [Example 234, 9-[(9S)-(methylsulphonyl)amino]-N-[(2S)-1-phenyl-4-[(-2,6-dichlorobenzoyl)oxy]-3-oxo-2-butyl]-octahydro-6,10-dioxo-6H-(1S)-pyridazino[1,2-a][1,2]diazepine-1-carboxamide]
1.5	12		CC(C)C[C@H](NC(=O)[C@@H]1CCCN2C(=O)CC[C@H](NS(C)(=O)=O)C(=O)N12)C(=O)COC(=O)c1c(Cl)cccc1Cl [Example 304, 9-[(9S)-(methylsulphonyl)amino]-N-[(3S)-5-methyl-1-[(2,6-dichlorobenzoyl)oxy]-2-oxo-3-hexyl]-octahydro-6,10-dioxo-6H-(1S)-pyridazino[1,2-a][1,2]diazepine-1-carboxamide]
5			CC(C)C[C@H](NC(=O)[C@@H]1CCCN2C(=O)CC[C@H](NS(=O)(=O)c3ccc(C(F)(F)F)cc3)C(=O)N12)C(=O)COC(=O)c1c(Cl)cccc1Cl [Example 313, 9-[(9S)-[[[4-(trifluoromethyl)phenyl]sulphonyl]amino]]-N-[(3S)-5-methyl-1-[(2,6-dichlorobenzoyl)oxy]-2-oxo-3-hexyl]-octahydro-6,10-dioxo-6H-(1S)-pyridazino[1,2-a][1,2]diazepine-1-carboxamide]
6	20		CC(C)C[C@H](NC(=O)[C@@H]1CCCN2C(=O)CC[C@H](NS(=O)(=O)c3ccc4ccccc4c3)C(=O)N12)C(=O)COC(=O)c1c(Cl)cccc1Cl [Example 322, 9-[(9S)-[(2-naphthalenyl)sulphonyl]amino]-N-[(3S)-5-methyl-1-[(2,6-dichlorobenzoyl)oxy]-2-oxo-3-hexyl]-octahydro-6,10-dioxo-6H-(1S)-pyridazino[1,2-a][1,2]diazepine-1-carboxamide]
	12	25	CC(C)C[C@H](NC(=O)[C@@H]1CCCN2C(=O)CC[C@H](NS(=O)(=O)c3ccc(C(F)(F)F)cc3)C(=O)N12)C(=O)C=[N+]=[N-] [Example 347, 9-[(9S)-[[4-(trifluoromethyl)phenyl]sulphonyl]amino]-N-((3S)-1-diazo-5-methyl-2-oxo-3-hexyl)-octahydro-6,10-dioxo-6H-(1S)-pyridazino[1,2-a][1,2]diazepine-1-carboxamide]
	10		CC(C)C[C@H](NC(=O)[C@@H]1CCCN2C(=O)CC[C@H](NS(=O)(=O)c3ccc4ccccc4c3)C(=O)N12)C(=O)C=[N+]=[N-] [Example 348, 9-[(9S)-[(2-naphthalenyl)sulphonyl]amino]-N-((3S)-1-diazo-5-methyl-2-oxo-3-hexyl)-octahydro-6,10-dioxo-6H-(1S)-pyridazino[1,2-a][1,2]diazepine-1-carboxamide]
4	20		C[C@H](NC(=O)[C@@H]1CCCN2C(=O)CC[C@H](NC(=O)NC3CCCCC3)C(=O)N12)C(=O)COC(=O)c1c(Cl)cccc1Cl [Example 433, 9-[(9S)-[(cyclohexylamino)carbonyl]amino]-N-[(2S)-4-[(2,6-dichlorobenzoyl)oxy]-3-oxo-2-butyl]-octahydro-6,10-dioxo-6H-(1S)-pyridazino[1,2-a][1,2]diazepine-1-carboxamide]
5			C[C@H](NC(=O)[C@@H]1CCCN2C(=O)CC[C@H](NC(=O)c3ccco3)C(=O)N12)C(=O)COC(=O)c1c(Cl)cccc1Cl [Example 443, 9-[(9S)-[(2-furanyl)carbonyl]amino]-N-[(2S)-4-[(2,6-dichlorobenzoyl)oxy]-3-oxo-2-butyl]-octahydro-6,10-dioxo-6H-(1S)-pyridazino[1,2-a][1,2]diazepine-1-carboxamide]
9	20		C[C@H](NC(=O)[C@@H]1CCCN2C(=O)CC[C@H](NC(=O)Nc3ccc(Oc4ccccc4)cc3)C(=O)N12)C(=O)COC(=O)c1c(Cl)cccc1Cl [Example 453, 9-[(9S)-[[(4-phenoxyphenyl)amino]carbonyl]amino]-N-[(2S)-4-[(2,6-dichlorobenzoyl)oxy]-3-oxo-2-butyl]-octahydro-6,10-dioxo-6H-(1S)-pyridazino[1,2-a][1,2]diazepine-1-carboxamide]
1.5			COc1cccc(C(=O)N[C@H]2CCC(=O)N3CCC[C@@H](C(=O)N[C@@H](C)C(=O)COC(=O)c4c(Cl)cccc4Cl)N3C2=O)c1 [Example 463, 9-[(9S)-(3-methoxybenzoyl)amino]-N-[(2S)-4-[(2,6-dichlorobenzoyl)oxy]-3-oxo-2-butyl]-octahydro-6,10-dioxo-6H-(1S)-pyridazino[1,2-a][1,2]diazepine-1-carboxamide]
6			C[C@H](NC(=O)[C@@H]1CCCN2C(=O)CC[C@H](NS(=O)(=O)c3ccc(C(F)(F)F)cc3)C(=O)N12)C(=O)COC(=O)c1c(Cl)cccc1Cl [Example 481, 9-[(9S)-[[4-(trifluoromethyl)phenyl]sulphonyl]amino]-N-[(2S)-4-[(2,6-dichlorobenzoyl)oxy]-3-oxo-2-butyl]-octahydro-6,10-dioxo-6H-(1S)-pyridazino[1,2-a][1,2]diazepine-1-carboxamide]

SMILES	IC50 (Cathepsin B) [µM]	IC50 (Cathepsin K) [µM]	Cathepsin B, percentage in parentheses beside IC50 value (% inhibition) (Cathepsin B; printed beside 20 μM, meaning not explained) [%]
C=CCOC(=O)CC[C@H](NC(=O)[C@@H]1CCCN2C(=O)CC[C@H](NC(=O)c3ccco3)C(=O)N12)C(=O)COC(=O)c1c(Cl)cccc1Cl [Example 91, (2-propenyl)(4S)6-[(2,6-dichlorobenzoyl)oxy]-4-[[[(1S,9S)-9-[[(2-furanyl)carbonyl]amino]-octahydro-6,10-dioxo-6H-pyridazino[1,2-a][1,2]diazepine-1-yl]carbonyl]amino]-5-oxo-hexanoate]	< 0.2	6	
